# Molecular target: T1, APRc (rAPRc activation product, rAPRc105-231) (Rickettsia conorii, UniProt Q92FY8)
# T1 construct: gene RC1339
# Format: biochemical
# T1 sequence (Q92FY8 105-231 limits assumed): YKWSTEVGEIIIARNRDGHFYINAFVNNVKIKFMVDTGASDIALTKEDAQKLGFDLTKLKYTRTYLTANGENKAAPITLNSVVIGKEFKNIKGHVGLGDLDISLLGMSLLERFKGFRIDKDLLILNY
compound,measurement,value
CC(C)(C)NC(=O)[C@@H]1CN(Cc2cccnc2)CCN1C[C@@H](O)C[C@@H](Cc1ccccc1)C(=O)N[C@H]1c2ccccc2C[C@H]1O [indinavir],% inhibition at 0.25 mM,incubation with indinavir resulted in a near complete inhibition of APRc

# Reference: article PMC4140852 (PLoS Pathogens, 2014)
